# Assays:
# HCoV-OC43 (VR-1558) = assay: Anti coronavirus activity: viral CPE inhibition in Vero 76 cells (microscopy, neutral red); assay type: cell-based; conditions: hCoV-OC43 (beta)
# AAK1 = AAK1 (Homo sapiens, UniProt Q2M2I8); assay: Kinase inhibition assay (HotSpot); assay type: biochemical; conditions: 10 μM ATP; read-out: Compound IC50, AAK1
# Excerpt: (§1) In vitro profiling of lipid and tyrosine kinases was accomplished using the “HotSpot” assay platform.
# ABL2 = ABL2 (Homo sapiens, UniProt P42684); assay: Kinase inhibition assay (HotSpot); assay type: biochemical; conditions: 10 μM ATP; read-out: Compound IC50, ABL2
# ABL2, sequence (P42684 whole entry): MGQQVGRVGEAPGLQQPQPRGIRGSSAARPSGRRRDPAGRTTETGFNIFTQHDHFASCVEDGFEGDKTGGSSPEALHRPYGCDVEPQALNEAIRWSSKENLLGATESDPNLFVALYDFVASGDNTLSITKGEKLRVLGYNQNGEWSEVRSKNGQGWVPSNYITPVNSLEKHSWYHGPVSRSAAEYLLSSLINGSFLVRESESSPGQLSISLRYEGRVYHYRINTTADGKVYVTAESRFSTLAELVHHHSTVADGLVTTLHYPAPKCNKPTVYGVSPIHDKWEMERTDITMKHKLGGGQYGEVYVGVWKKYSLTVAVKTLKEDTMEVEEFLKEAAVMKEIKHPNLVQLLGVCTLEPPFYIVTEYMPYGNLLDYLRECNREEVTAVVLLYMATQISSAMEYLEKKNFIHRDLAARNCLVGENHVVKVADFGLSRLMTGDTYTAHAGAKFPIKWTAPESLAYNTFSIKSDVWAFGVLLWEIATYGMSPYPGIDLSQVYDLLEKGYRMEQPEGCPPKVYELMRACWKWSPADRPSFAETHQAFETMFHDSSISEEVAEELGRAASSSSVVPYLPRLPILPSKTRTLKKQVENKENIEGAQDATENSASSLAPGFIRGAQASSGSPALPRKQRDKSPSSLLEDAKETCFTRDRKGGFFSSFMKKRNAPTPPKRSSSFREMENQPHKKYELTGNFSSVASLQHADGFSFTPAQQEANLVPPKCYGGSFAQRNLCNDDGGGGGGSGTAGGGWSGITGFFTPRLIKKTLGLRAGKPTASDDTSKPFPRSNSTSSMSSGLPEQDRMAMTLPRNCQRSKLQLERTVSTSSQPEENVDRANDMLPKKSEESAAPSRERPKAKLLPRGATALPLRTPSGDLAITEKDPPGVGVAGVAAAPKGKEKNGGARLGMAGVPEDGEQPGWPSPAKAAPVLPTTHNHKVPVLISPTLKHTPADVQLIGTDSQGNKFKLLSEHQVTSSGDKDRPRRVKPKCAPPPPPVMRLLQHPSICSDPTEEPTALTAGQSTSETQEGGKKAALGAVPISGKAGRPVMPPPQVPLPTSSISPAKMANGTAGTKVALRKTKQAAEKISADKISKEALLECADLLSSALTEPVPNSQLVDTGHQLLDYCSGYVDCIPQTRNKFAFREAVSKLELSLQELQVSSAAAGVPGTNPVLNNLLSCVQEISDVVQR
# Excerpt: as §1
# BIKE = BIKE (Homo sapiens, UniProt Q9NSY1); assay: Kinase inhibition assay (HotSpot); assay type: biochemical; conditions: 10 μM ATP; read-out: Compound IC50, BIKE
# BIKE, sequence (Q9NSY1 whole entry): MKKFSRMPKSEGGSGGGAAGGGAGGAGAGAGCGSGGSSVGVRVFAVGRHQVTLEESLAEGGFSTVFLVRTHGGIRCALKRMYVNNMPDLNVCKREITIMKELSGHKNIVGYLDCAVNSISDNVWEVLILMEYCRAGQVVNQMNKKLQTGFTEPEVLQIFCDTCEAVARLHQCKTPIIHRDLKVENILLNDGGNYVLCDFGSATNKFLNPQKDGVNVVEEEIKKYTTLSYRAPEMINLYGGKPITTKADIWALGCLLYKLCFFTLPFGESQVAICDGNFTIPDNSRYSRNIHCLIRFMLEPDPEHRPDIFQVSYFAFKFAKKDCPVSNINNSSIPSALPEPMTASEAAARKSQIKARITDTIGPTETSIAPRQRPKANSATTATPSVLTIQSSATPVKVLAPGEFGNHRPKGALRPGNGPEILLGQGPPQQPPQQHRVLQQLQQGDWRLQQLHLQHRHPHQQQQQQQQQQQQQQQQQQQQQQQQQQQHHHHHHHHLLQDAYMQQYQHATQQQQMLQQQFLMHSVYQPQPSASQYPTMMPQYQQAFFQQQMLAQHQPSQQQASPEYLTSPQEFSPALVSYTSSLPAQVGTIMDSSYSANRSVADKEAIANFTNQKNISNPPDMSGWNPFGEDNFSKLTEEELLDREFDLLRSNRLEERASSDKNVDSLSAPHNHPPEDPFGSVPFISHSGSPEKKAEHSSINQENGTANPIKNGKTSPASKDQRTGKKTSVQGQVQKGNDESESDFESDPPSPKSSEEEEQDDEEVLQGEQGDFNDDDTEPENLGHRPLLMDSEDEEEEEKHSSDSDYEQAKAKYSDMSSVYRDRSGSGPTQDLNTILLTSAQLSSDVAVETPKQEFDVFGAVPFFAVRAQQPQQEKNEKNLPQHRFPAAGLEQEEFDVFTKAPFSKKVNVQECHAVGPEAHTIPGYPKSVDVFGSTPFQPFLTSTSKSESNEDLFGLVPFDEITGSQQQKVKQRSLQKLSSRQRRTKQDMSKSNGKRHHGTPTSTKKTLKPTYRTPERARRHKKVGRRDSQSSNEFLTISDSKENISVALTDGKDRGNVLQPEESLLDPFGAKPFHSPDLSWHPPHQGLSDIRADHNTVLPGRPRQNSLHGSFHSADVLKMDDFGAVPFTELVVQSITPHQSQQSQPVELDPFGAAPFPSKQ
# Excerpt: as §1
# CSNK2A1 = CSNK2A1 (Homo sapiens, UniProt P68400); assay: Kinase inhibition assay (HotSpot); assay type: biochemical; conditions: 10 μM ATP; read-out: Compound IC50, CSNK2A1
# CSNK2A1, sequence (P68400 whole entry): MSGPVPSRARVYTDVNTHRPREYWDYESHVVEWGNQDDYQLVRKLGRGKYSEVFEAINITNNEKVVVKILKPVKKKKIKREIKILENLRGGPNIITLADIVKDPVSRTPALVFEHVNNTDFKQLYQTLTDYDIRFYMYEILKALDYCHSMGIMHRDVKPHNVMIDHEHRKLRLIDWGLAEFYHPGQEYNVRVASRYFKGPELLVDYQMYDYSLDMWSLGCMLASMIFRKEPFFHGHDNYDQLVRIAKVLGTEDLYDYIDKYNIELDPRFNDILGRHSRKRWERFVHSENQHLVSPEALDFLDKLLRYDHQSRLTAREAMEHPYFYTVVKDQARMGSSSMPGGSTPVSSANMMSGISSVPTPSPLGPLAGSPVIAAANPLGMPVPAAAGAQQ
# Excerpt: as §1
# CSNK2A2 = CSNK2A2 (Homo sapiens, UniProt P19784); assay: Kinase inhibition assay (HotSpot); assay type: biochemical; conditions: 10 μM ATP; read-out: Compound IC50, CSNK2A2
# CSNK2A2, sequence (P19784 whole entry): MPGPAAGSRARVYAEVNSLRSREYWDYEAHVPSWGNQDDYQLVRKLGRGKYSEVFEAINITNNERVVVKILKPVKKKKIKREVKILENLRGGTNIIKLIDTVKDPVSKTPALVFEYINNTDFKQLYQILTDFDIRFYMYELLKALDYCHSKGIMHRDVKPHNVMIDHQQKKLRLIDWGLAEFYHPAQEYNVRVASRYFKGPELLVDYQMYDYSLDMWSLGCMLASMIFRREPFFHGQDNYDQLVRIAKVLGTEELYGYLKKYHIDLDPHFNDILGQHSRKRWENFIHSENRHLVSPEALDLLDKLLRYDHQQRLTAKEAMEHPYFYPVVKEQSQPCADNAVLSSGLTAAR
# Excerpt: as §1
# GAK = target: T1, GAK (Homo sapiens, UniProt O14976); assay: Kinase inhibition assay (HotSpot); assay type: biochemical; conditions: 10 μM ATP; read-out: Compound IC50, GAK
# T1 sequence (O14976 1-1311): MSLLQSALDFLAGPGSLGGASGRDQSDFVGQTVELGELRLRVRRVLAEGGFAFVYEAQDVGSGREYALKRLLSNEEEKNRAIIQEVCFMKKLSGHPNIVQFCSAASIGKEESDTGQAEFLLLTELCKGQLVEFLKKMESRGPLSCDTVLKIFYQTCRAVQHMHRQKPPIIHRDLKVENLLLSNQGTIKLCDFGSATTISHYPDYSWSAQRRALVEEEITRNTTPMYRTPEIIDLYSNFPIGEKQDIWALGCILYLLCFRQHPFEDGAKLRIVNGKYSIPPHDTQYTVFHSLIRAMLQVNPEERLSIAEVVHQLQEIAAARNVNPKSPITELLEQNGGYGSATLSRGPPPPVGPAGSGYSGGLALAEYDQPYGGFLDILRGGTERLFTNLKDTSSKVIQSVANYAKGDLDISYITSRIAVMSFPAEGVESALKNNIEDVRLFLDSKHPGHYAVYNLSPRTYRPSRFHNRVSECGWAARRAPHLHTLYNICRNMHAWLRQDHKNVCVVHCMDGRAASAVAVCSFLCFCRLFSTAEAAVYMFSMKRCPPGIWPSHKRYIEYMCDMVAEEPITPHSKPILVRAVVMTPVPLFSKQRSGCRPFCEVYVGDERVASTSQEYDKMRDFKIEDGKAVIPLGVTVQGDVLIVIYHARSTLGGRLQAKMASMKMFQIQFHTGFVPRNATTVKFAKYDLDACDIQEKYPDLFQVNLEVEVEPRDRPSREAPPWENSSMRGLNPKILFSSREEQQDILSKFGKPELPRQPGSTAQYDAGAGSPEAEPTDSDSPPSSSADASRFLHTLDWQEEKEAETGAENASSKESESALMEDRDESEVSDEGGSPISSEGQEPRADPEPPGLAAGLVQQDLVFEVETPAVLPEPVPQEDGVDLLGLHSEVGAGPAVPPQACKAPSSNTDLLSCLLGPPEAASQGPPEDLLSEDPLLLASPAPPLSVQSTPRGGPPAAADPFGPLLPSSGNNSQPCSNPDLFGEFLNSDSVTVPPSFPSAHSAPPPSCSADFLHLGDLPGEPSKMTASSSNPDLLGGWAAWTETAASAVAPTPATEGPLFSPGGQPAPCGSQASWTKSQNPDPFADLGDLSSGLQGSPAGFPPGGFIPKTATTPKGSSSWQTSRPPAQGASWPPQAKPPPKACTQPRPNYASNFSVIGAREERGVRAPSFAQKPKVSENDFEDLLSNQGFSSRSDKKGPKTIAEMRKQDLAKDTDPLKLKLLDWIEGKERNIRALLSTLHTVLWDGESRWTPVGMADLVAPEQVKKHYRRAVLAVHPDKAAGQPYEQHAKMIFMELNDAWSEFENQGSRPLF
# Excerpt: as §1
# MNK2 = MNK2 (Homo sapiens, UniProt Q9HBH9); assay: Kinase inhibition assay (HotSpot); assay type: biochemical; conditions: 10 μM ATP; read-out: Compound IC50, MNK2
# MNK2, sequence (Q9HBH9 whole entry): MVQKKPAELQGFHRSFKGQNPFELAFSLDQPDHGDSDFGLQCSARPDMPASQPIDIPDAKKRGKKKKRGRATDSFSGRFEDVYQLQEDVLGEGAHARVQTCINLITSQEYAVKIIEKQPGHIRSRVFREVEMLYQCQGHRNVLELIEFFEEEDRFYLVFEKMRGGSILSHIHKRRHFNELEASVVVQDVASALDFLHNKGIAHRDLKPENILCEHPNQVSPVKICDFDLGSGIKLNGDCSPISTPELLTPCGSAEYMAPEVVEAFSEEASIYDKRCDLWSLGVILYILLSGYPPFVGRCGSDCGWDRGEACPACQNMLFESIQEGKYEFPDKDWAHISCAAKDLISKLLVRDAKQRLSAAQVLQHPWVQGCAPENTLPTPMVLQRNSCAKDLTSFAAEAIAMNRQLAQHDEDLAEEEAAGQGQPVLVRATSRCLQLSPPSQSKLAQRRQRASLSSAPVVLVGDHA
# Excerpt: as §1
# PI3Kb = PI3Kb (Homo sapiens, UniProt P42338); assay: Kinase inhibition assay (HotSpot); assay type: biochemical; conditions: 10 μM ATP; read-out: Compound IC50, PI3Kb
# Excerpt: as §1
# [1] = system: cell culture-derived HCV (HCVcc); assay type: cell-based, Hepatitis C virus
# AAK1, sequence (Q2M2I8 whole entry): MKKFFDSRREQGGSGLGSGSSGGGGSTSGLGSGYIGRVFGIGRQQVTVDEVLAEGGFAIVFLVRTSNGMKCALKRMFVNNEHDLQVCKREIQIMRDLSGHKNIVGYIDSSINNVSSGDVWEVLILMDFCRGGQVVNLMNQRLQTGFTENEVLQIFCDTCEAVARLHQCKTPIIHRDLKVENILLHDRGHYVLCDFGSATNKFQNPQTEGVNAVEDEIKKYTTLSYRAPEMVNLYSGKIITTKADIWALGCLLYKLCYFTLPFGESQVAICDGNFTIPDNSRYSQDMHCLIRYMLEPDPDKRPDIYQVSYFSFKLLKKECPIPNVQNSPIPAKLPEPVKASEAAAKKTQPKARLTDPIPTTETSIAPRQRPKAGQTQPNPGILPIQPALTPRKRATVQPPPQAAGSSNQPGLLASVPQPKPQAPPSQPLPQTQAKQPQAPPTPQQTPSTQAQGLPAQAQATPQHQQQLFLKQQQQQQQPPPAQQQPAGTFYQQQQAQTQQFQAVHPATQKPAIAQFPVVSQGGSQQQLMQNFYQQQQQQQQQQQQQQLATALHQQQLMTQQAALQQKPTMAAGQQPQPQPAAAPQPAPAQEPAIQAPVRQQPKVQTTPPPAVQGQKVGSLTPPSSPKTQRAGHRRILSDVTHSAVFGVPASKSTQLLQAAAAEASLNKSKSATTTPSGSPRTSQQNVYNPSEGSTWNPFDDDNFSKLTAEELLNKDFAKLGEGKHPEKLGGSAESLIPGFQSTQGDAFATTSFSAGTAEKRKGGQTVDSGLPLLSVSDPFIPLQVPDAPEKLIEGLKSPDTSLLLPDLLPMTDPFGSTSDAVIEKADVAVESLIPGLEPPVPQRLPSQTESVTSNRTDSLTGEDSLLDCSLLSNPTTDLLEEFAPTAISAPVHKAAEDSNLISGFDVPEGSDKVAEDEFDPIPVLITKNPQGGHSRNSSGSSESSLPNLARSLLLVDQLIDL
Compound,EC50 (HCoV-OC43 (VR-1558)) [nM],SI (CC50/EC50) (HCoV-OC43 (VR-1558)),IC50 (AAK1) [nM],IC50 (ABL2) [nM],IC50 (BIKE) [nM],IC50 (CSNK2A1) [nM],IC50 (CSNK2A2) [nM],IC50 (GAK) [nM],IC50 (MNK2) [nM],IC50 (PI3Kb) [nM],CC50 (Vero 76 cells) [nM],EC50 [1] [IU/mL]
COc1cc(-c2cc(=O)c3c(O)cc(O)c(CC=C(C)C)c3o2)ccc1O [FBL-03G],420,6.9,4,274,258,20,4,8,549,136,2900,
Human interferon alpha-2b [rIFNa-2b],,,,,,,,,,,,0.63

# — patent US20210346339A1, “THERAPEUTIC FLAVONOID BASED ANTIVIRAL AGENTS” (priority 2016, published 2021)
